Test results reported in patent US20040235856A1, “Treatment of incontinence” (Pfizer Inc, priority 2003, published 2004).
Values joined by “and” are separate entries in the source; they are usually repeats but may differ in a detail not shown here. Equal values may be shown once.

Experiments:
mice = details: subcutaneous administration; only significant at the highest dose tested; cited from earlier work
[1] = system: ovariectomised, birth traumatised rats; assay: Leak point pressure in ovariectomised, birth traumatised female rats; assay type: in vivo, Sprague Dawley rats
Description: In order to evaluate whether the effects of 5-HT2C agonists on urethral function was present in species other than the guinea pig, leak point pressure was measured in the absence and presence of MK-212 in a known model of urethral function in the rat (Lin A. S. et al. (1998) Urology 52:143-51; Sievert K. D. et al. (2001) J Urol. 166, 311-317; Resplande J et al (2002) J Urol. 168, 323-30), namely ovariectomised, birth traumatised rats.
Ovariectomy and simulated birth trauma were carried out on 8 female Sprague Dawley rats as described previously (Lin A. S. et al. (1998) Urology 52:143-51; Sievert K. D. et al. (2001) J Urol. 166, 311-317; Resplande J et al (2002) J Urol. 168, 323-30). Six weeks subsequent to recovery all animals underwent investigation of leak point pressure, initially rats were anaesthetised with halothane (4%), carried in oxygen (3-4L min^−1) and were maintained at an appropriate surgical plane with urethane (25% w/v; 0.5 ml 100 g^−1 body weight). The trachea, a jugular vein and a carotid artery were cannulated for respiratory ventilation, injection of test compound and monitoring of blood pressure, respectively. A midline laporatomy was performed to expose the urinary bladder and a cystometry tube was inserted through a small incision in the dome of the bladder and secured in place. The abdominal wound was closed tightly around the externalised cystometry tube, which, in turn, was connected to an infusion pump and pressure transducer, for filling the bladder and for recording intravesical pressure, respectively. Baseline leak point pressures (LPP) were established by slow elevation of a saline containing bag connected to the bladder and pressure transducer via the cystometry tube. LPP was defined as the bladder pressure at the point where fluid was first noted at the urethral meatus. Between 4 and 7 baseline readings were made before iv bolus administration of MK-212 (0.1 mg kg^−1). Following a 2 min delay to allow for distribution LPP measurements were repeated in an identical manner to that described above, between 3 and 8 measures were taken.

anaesthetised guinea pig [2] = assay: Abdominal weight inducing micturition or leak and EUS EMG activity in anaesthetised guinea pig; assay type: in vivo; details: for % of Control Abdominal Weight Inducing Micturition or Leak: bladder at 75% of threshold volume
Description: (§1) In order to explore what subtypes of 5-HT receptors may be involved in enhancing the sacral spinal drive to the EUS, the effects of m-CPP (Sigma Aldrich Product number C-5554), MK-212 (Tocris Cat No 0941), YM-348 (WO 01/83487), Ro 60-0175 (Tocris Cat No 1854), WAY-161503 (Tocris Cat No 1801), and Example 1-N in WO 03/000663, which have been reported to be 5-HT2C receptor agonists, were investigated in an anaesthetised guinea pig model specifically designed to measure urethral continence mechanisms and leak point pressure using two paradigms. Firstly the activity of urethral striated musculature in response to increased abdominal pressure and so the pressure required to induce leak and secondly, the response of urethral striated musculature during normal bladder filling so as to maintain continence, as measured by changes in electromyographic activity of this continence maintaining sphincter.
(§2) Experiments were performed in adult female guinea pigs, weighing 620-707 g. All animals were initially anaesthetised with halothane (4%), carried in oxygen (3-4L min^−1) and were maintained at an appropriate surgical plane with urethane (25% w/v; 0.5 ml 100 g^−1 body weight). The trachea, a jugular vein and a carotid artery were cannulated for respiratory ventilation, injection of test compound and monitoring of blood pressure, respectively. A midline laporatomy was performed to expose the urinary bladder and a cystometry tube was inserted through a small incision in the dome of the bladder and secured in place. The abdominal wound was closed tightly around the externalised cystometry tube, which, in turn, was connected to an infusion pump and pressure transducer, for filling the bladder and for recording intravesical pressure, respectively. Electromyographic (EMG) wire leads were inserted into the EUS striated muscle layer opposed to the dorsal surface of the symphysis pubis.
Following a 30 min post surgery stabilisation period, the bladder was filled at a rate of 150 μl min^−1 with physiological saline (room temperature), until initiation of a micturition reflex or leak was observed. Following micturition or leak, the bladder was drained via the externalised cystometry tube. Bladder filling was repeated at least 3 times in order to establish a mean bladder threshold capacity for initiation of micturition or leak. Additionally, EUS EMG activity and intravesical pressures were recorded throughout bladder filling. Subsequently 1 of 2 protocols was carried out.
1. Once a threshold bladder volume, which induced micturition or leak, was established, 75% of this volume was used for the next stage of the experiment. The bladder was filled (150 μl min^−1) to 75% of threshold volume with physiological saline and, through the use of a specially constructed frame, weights were positioned on the ventral surface of the abdomen of the animal just rostral to the position of the bladder. Starting at 50 g, then 60 g and then at increasing increments of 20 g, weights were placed on the animal's abdomen until micturition/leakage of fluid was observed. EUS EMG activity and intravesical pressure were recorded while weights were applied to the abdomen. The main parameters investigated were minimum abdominal weight required to induce micturition or leak at 75% of bladder threshold volume, and maximum EUS EMG activity at micturition or leak. Test drug or vehicle was injected intravenously immediately after the bladder was filled to 75% of threshold volume, and 60-120 sec before applying the first abdominal weight (50 g).
Agonists were tested at doses between 0.1 and 3.0 mg kg^−1. In addition the effect of the reported 5-HT2C selective antagonist SB 242084 (Sigma, Cat-No: S-8061) (1 mg kg^−1) on agonist-induced effects was investigated in some animals.

anaesthetised guinea pig [3] = assay: EUS EMG activity during normal bladder filling in anaesthetised guinea pig; assay type: in vivo
Description: as §1
as §2, with “Electromyographic (EMG) wire leads were inserted into the EUS striated muscle layer opposed to the dorsal surface of the symphysis pubis.” left out
Following a 30 min post surgery stabilisation period, the bladder was filled at a rate of 150 μl min^−1 with physiological saline (room temperature), until initiation of a micturition reflex or leak was observed. […] Additionally, EUS EMG activity and intravesical pressures were recorded throughout bladder filling. […]

[4] = 0.1 mg/kg iv bolus, individual animals 1-8
[5] = 0.3 mg kg^-1, filling 150 μl min^-1, FIG. 1b

In the case of `FC(F)(F)c1ccc(N2CCNCC2)nc1Cl` [Org-12962, 1-[6-chloro-5-(trifluoromethyl)-2-pyridinyl]piperazine], the “urine wet spot size” value (mice) is listed as “reduce urine wet spot size”.
For `Clc1cncc(N2CCNCC2)n1` [MK-212], the “animals in which LPP pressure increased” value ([1]; 0.1 mg kg^-1) was 7 of 8, the “mean increase in LPP (mean ± standard deviation)” value ([1]; 0.1 mg kg^-1, N=7) was 7.1±2.6 mmHg and the “Increase in LPP over baseline” value [1, 4] was 10.2 mmHg and 5.5 mmHg and 7.0 mmHg and 0.4 mmHg and 3.6 mmHg and 6.0 mmHg and 10.9 mmHg and 6.7 mmHg. For the same compound, the “LPP (mean ± SD) after MK-212” value [1, 4] was 30.6 (3.8) mmHg and 23.4 (3.4) mmHg and 21.8 (1.7) mmHg and 18.2 (1.5) mmHg and 27.6 (1.5) mmHg and 30.7 (1.2) mmHg and 33.5 (1.6) mmHg and 23.0 (2.6) mmHg.
In the case of `Clc1cccc(N2CCNCC2)c1` [m-CPP, m-chlorophenylpiperazine], the “% of Control EUS EMG Activity” value (anaesthetised guinea pig [2]; 0.3 mg kg^-1 iv.) was 110 ± 43 % of Control, the “% of Control Abdominal Weight Inducing Micturition or Leak” value (anaesthetised guinea pig [2]; 0.3 mg kg^-1 iv.) was 128 ± 6 % of Control and the “% of Control EUS EMG Activity” value (anaesthetised guinea pig [2]; 1.0 mg kg^-1 iv.) was 135 ± 10 % of Control. For the same compound, the “% of Control Abdominal Weight Inducing Micturition or Leak” value (anaesthetised guinea pig [2]; 1.0 mg kg^-1 iv.) was 139 ± 12 % of Control, the “increase in EUS EMG activity compared with controls” value (anaesthetised guinea pig [2]; 3.0 mg kg^-1) was 56% and the “increase of the weight required to induce micturition or leak compared with controls” value (anaesthetised guinea pig [2]; 3.0 mg kg^-1) was 66%. For the same compound, the “% of Control EUS EMG Activity” value (anaesthetised guinea pig [2]; 3.0 mg kg^-1 iv.) was 156 ± 18 % of Control and the “% of Control Abdominal Weight Inducing Micturition or Leak” value (anaesthetised guinea pig [2]; 3.0 mg kg^-1 iv.) was 166 ± 9 % of Control.
In the case of `Cc1cc2c(cc1Cl)N(C(=O)Nc1ccc(Oc3cccnc3C)nc1)CC2` [SB 242084], the “effect of antagonist on agonist-induced effects” value (anaesthetised guinea pig [3]; 1 mg kg^-1, in those animals tested) was “abolished the effects of applied 5HT2c agonists”.
In the case of `O=C1Nc2cc(Cl)c(Cl)cc2N2CCNCC12` (stereo not shown) [Way 161503], the “EUS EMG activity during normal bladder filling” value (anaesthetised guinea pig [3]; [5]) was “potentiated” and the “bladder volume at which EUS EMG activity increases” value (anaesthetised guinea pig [3]; [5]) was “increases in activity occurred at lower bladder volumes than in drug free conditions”.
